This passage reports EC50 results from patent US20230310505A1, “COMPOSITION FOR PREVENTING HEARING LOSS CONTAINING MESENCHYMAL STEM CELLS OR EXOSOMES DERIVED THEREFROM AS ACTIVE INGREDIENT” (UNIVERSITY INDUSTRY FOUNDATION, YONSEI UNIVERSITY WONJU …, priority 2020, published 2023).

The structures appear in SMILES notation. pEC50: −log10 of the molar value.

In the test the test system is outer hair cells (OHC) and inner hair cells (IHC) of cochlear explants. The test is described as follows: Ototoxic hearing loss induction: cisplatin treatment of cochlear explants, hair cell viability by immunofluorescence. It counts as cell-based, ICR mice. Particulars: cisplatin for 24 hours. On the procedure:
It is also known that damage to outer hair cells (OHC) and inner hair cells (IHC) of the cochlea leads to hearing loss.
After completion of the treatment, the cochlear explants were fixed with PBS containing 4% formalin for 15 minutes and washed with PBS three times. Next, after incubation with PBS containing 0.1% Triton X-100 for 10 minutes, blocking was performed with PBS containing 4% BSA for 30 minutes. Thereafter, incubation was performed for 1 hour with a rabbit anti-mouse myosin 7a primary antibody (1:400, abcam). After washing with PBS three times, incubation was performed for 1 hour with goat anti-rabbit IgG (H+L) Alexa Fluor 488 antibody (1:500, abcam) with Phalloidine Alexa Fluor 647 (1:1000, abcam). After washing with PBS, the coverslip was transferred to a slide and a drop of Fluoroshield with DAPI (Sigma, USA) was gently applied to the coverslip. The coverslip was sealed with clear nail polish and observed under a fluorescence microscope (FIG. 1B), and the number of OHCs and IHCs was measured to calculate the cell viability (FIG. 1C).

As a reminder, the pEC50 is −log10 of the EC50, conventionally taken in molar units. A lower pEC50 goes with a large EC50. With `N.N.[Cl][Pt][Cl]` [cisplatin], the pEC50 reads like this: (apical turn) 4.00; (middle turn and basal turn) 4.10.
